According to PubChem BioAssay AID328 (DTP/NCI, 2004):
Where “and” joins values, the source holds several entries; their conditions need not be identical. Equal values may be shown once. Toxic doses and inconclusive results are not listed.

Test system: BDF1 mice, P388 leukemia ip, median survival T/C
Experiment: NCI In Vivo Anticancer Drug Screen. Data for tumor model P388 Leukemia (intraperitoneal) in B6D2F1 (BDF1) mice
Conditions: endpoint: median survival time, higher = longer survival
In short: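 Survival ratio, drug arm over vehicle arm, in mice with a transplanted tumour.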

[1] = dose: 3.0 mg/kg/injection, schedule: Q04DX003 (ip), vehicle: saline with Tween-80
[2] = dose: 50.0 mg/kg/injection, schedule: Q04DX003 (ip), vehicle: saline
[3] = dose: 100.0 mg/kg/injection, schedule: Q04DX003 (ip), vehicle: saline

With `C[n+]1ccc(Nc2ccc(NC(=O)c3ccc([N+](=O)[O-])cc3)cc2)cc1` the T/C (dose: 6.25 mg/kg/injection, schedule: Q01DX009 (ip), vehicle: water) was 108 % of control, the T/C (dose: 12.5 mg/kg/injection, schedule: Q01DX009 (ip), vehicle: water) was 96 % of control and the T/C (dose: 12.5 mg/kg/injection, schedule: Q04DX003 (ip), vehicle: water) was 100 % of control. For the same compound, the T/C (dose: 25.0 mg/kg/injection, schedule: Q01DX009 (ip), vehicle: water) was 90 % of control, the T/C (dose: 25.0 mg/kg/injection, schedule: Q04DX003 (ip), vehicle: water) was 98 % of control and 100 % of control (2×) and the T/C (dose: 50.0 mg/kg/injection, schedule: Q01DX009 (ip), vehicle: water) was 97 % of control. For the same compound, the T/C (dose: 100.0 mg/kg/injection, schedule: Q01DX009 (ip), vehicle: water) was 107 % of control and the T/C (dose: 150.0 mg/kg/injection, schedule: Q04DX003 (ip), vehicle: water) was 91 % of control.

For `COc1cc(C=Nc2ccc(C(=O)O)cc2)ccc1N(CCCl)CCCl`, the T/C (dose: 1.3 mg/kg/injection, schedule: Q04DX003 (ip), vehicle: saline with Tween-80) was 115 % of control, the T/C (dose: 2.0 mg/kg/injection, schedule: Q04DX003 (ip), vehicle: saline with Tween-80) was 111 % of control and the T/C [1] was 162 % of control. The T/C (dose: 7.0 mg/kg/injection, schedule: Q04DX003 (ip), vehicle: saline with Tween-80) was 150 % of control and 158 % of control, the T/C (dose: 11.0 mg/kg/injection, schedule: Q04DX003 (ip), vehicle: saline with Tween-80) was 170 % of control and the T/C (dose: 12.5 mg/kg/injection, schedule: Q01DX009 (ip), vehicle: saline with Tween-80) was 195 % of control. The T/C (dose: 16.0 mg/kg/injection, schedule: Q04DX003 (ip), vehicle: saline with Tween-80) was 187 % of control, the T/C (dose: 16.5 mg/kg/injection, schedule: Q04DX003 (ip), vehicle: saline with Tween-80) was 169 % of control and the T/C (dose: 25.0 mg/kg/injection, schedule: Q04DX003 (ip), vehicle: saline with Tween-80) was 196 % of control. For the same compound, the T/C (dose: 37.5 mg/kg/injection, schedule: Q04DX003 (ip), vehicle: saline with Tween-80) was 107 % of control.

`c1ccc2c(c1)cc1c3nnnn3ncn21` was tested, and the T/C (dose: 50.0 mg/kg/injection, schedule: Q01DX009 (ip), vehicle: saline with Tween-80) was 106 % of control, the T/C (dose: 100.0 mg/kg/injection, schedule: Q01DX009 (ip), vehicle: saline with Tween-80) was 104 % of control and the T/C (dose: 200.0 mg/kg/injection, schedule: Q01DX009 (ip), vehicle: saline with Tween-80) was 89 % of control.

In the case of `O=C(O)CNCc1ccc(F)cc1`, the T/C [2] is reported as 111 % of control, the T/C [3] is reported as 120 % of control and the T/C (dose: 200.0 mg/kg/injection, schedule: Q04DX003 (ip), vehicle: saline) is reported as 115 % of control.

`CCCN(CCC)CCCOC(=O)c1ccc(N)cc1` was tested, and the T/C (dose: 25.0 mg/kg/injection, schedule: Q01DX009 (ip), vehicle: saline) was 100 % of control, the T/C (dose: 50.0 mg/kg/injection, schedule: Q01DX009 (ip), vehicle: saline) was 96 % of control and the T/C [2] was 100 % of control. The T/C (dose: 100.0 mg/kg/injection, schedule: Q01DX009 (ip), vehicle: saline) was 89 % of control and the T/C [3] was 95 % of control.

`C[N+](C)(CCCCOCCCC[N+](C)(C)Cc1ccc([N+](=O)[O-])cc1)Cc1ccc([N+](=O)[O-])cc1` was tested, and the T/C (dose: 0.19 mg/kg/injection, schedule: Q01DX009 (ip), vehicle: saline with Tween-80) was 100 % of control, the T/C (dose: 0.37 mg/kg/injection, schedule: Q01DX009 (ip), vehicle: saline with Tween-80) was 104 % of control and the T/C (dose: 0.75 mg/kg/injection, schedule: Q01DX009 (ip), vehicle: saline with Tween-80) was 108 % of control. For the same compound, the T/C (dose: 1.5 mg/kg/injection, schedule: Q01DX009 (ip), vehicle: saline with Tween-80) was 96 % of control, the T/C (dose: 1.5 mg/kg/injection, schedule: Q04DX003 (ip), vehicle: saline with Tween-80) was 109 % of control and the T/C [1] was 104 % of control.

In the case of `CCOC(=O)CCCl`, the T/C (dose: 100.0 mg/kg/injection, schedule: Q01DX001 (ip), vehicle: Klucel (hydroxypropylcellulose) (HPC)) is reported as 95 % of control, the T/C (dose: 100.0 mg/kg/injection, schedule: Q04DX003 (ip), vehicle: Klucel (hydroxypropylcellulose) (HPC)) is reported as 100 % of control and the T/C (dose: 200.0 mg/kg/injection, schedule: Q01DX001 (ip), vehicle: Klucel (hydroxypropylcellulose) (HPC)) is reported as 104 % of control. The T/C (dose: 200.0 mg/kg/injection, schedule: Q04DX003 (ip), vehicle: Klucel (hydroxypropylcellulose) (HPC)) was 104 % of control, the T/C (dose: 400.0 mg/kg/injection, schedule: Q01DX001 (ip), vehicle: Klucel (hydroxypropylcellulose) (HPC)) was 91 % of control and the T/C (dose: 400.0 mg/kg/injection, schedule: Q04DX003 (ip), vehicle: Klucel (hydroxypropylcellulose) (HPC)) was 100 % of control.
